Source: patent US8853264B2, “Use of lignan compounds for treating or preventing inflammatory disease” (Newtree Industry Co., Ltd., priority 2005, dated 2014)

Legend:
[1] = test system: PGE2; experiment: PGE2 production in macrophages activated by LPS (ELISA); type: cell-based
Method: First, 1×10^6 cells/ml of RAW264.7 cells were inoculated into a 96-well tissue culture plate and left to stand at room temperature for 5 hours. Then, the inventive macelignan was added to the cells at each of concentrations of 1-20 μM and incubated for 2 hours. A negative control group was not treated with anything, and a positive control group was treated with curcumin (isolated from Curcuma longa; Sigma) reported to have PGE2 inhibitory activity. Then, the cells were treated with 1 μg/ml of LPS and cultured for 18 hours. The production of PGE2 in the macrophages was quantified by an assay kit (R&D System Inc, Minneapolis, USA) using an ELISA method (Chen et al., Biochem. Pharmacol., 68: 1089-1100, 2002).

[2] = test system: CD4 T cells; experiment: T cell proliferation by MTT assay; type: cell-based, mouse; details: antibody (CD3 & CD28) stimulation; macelignan 0.01-100 μg/ml
From the text: In order to investigate how macelignan directly affects T cells, the cells were stimulated and treated with macelignan at the same time. Wild type and OT-II transgenic mouse CD4 T cells, and antigen presenting cells were used (T cell receptor of CD4 T cells of OT-II transgenic mouse cells is specific for OVA peptide323-339). Wild type CD4 T cells were stimulated with anti-CD3 and anti-CD28 antibodies (BD Pharmigen, San Diego, Calif.), and OT-II transgenic CD4 T cells were stimulated with OVA peptide (Baylor College of Medicine Protein Co-facility). The effect of macelignan was determined by the degree of proliferation of the T cells by MTT assay and by the level of cytokine production. After culturing for 4 days, the level of cytokine production was measured from the supernatant by ELISA. MTT assay was performed using cell proliferation assay kit I (Roche). Cytokines IL-4, IL-17 and IFN-g were detected. ELISA was performed using primary antibody, secondary antibody, streptavidin-alkaline phosphatase (BD Pharmigen) and phosphatase substrate (Sigma-Aldrich, St. Louis, Mo.) according to the manufacturer's instructions.

[3] = test system: inflammatory cells, mast cells, eosinophils; experiment: Skin staining (H&E, Toluidine blue, Congo red), atopic dermatitis model; type: in vivo, NC/Nga mice
Method: 8-week-old NC/Nga mice (20-25 g) were purchased from Chungang Lab. Animal. After adapting for 1 week, the NC/Nga mouse was anesthetized with 90% ethyl ether (Ducsan, Korea) and hair was removed from the occipital region and the back of the mouse using depilatory cream (Reckitt Benckiser, France). After allowing micro wound healing for a day, 100 mg of mite antigen cream (Biostir, Inc. Japan) comprising Dermatophagoides farina, which causes atopic dermatitis, as a main ingredient was evenly applied on the ear, occipital region and back, 3 times a week (for 5 weeks, from week 9 to week 13). 2 hours before application of the mite antigen cream, 4% SDS solution was applied at the same area to increase transdermal absorption of the mite antigen cream by inducing the breakdown of skin fats and cuticle layer. From week 3 following the application, IgE value was measured to quantitate the degree of atopic dermatitis. Also during the drug treatment period (week 12 to week 13), 100 mg of the mite antigen cream was applied 3 times a week to prevent spontaneous healing of the atopic dermatitis.
In order to induce atopic dermatitis, 100 mg of mite antigen cream was applied on the ear, occipital region and back of NC/Nga mouse (9 to 11 weeks old), except for the negative control group, 3 times a week, 2 hours after the application of 4% SDS solution. Three weeks later, it was observed whether atopic dermatitis was induced by checking skin rash, erythema, cornification, or the like. Atopic dermatitis was induced in all groups except for the negative control group. For drug treatment and evaluation of therapeutic effect, mice were grouped into 12 groups, 6 oral administration groups and 6 topical application groups (each consisting of negative control group, positive control group, macelignan low conc. group, macelignan high conc. group, nutmeg extract low conc. group, and nutmeg extract high conc. group), with n=5 per cage. During the following drug treatment and evaluation period of 2 weeks (12 to 13 weeks old), the negative control groups, which had not been treated with 4% SDS solution and mite antigen cream, were treated with physiological saline (oral administration group) or base cream (topical application group) every day, and the positive control groups, which had been treated with 100 mg of mite antigen cream 2 hours after application of 4% SDS solution, 3 times every week, were treated with physiological saline (oral administration group) or base cream (topical application group). The oral administration groups were treated with 100 mg of mite antigen cream 2 hours after application of 4% SDS solution, 3 times every week, and were treated with macelignan or nutmeg extract at low concentration (50 mg/kg/day) or high concentration (150 mg/kg/day) every day. The topical application groups were treated with 100 mg of mite antigen cream 2 hours after application of 4% SDS solution, 3 times every week, and were treated with macelignan cream or nutmeg extract cream at low concentration (20 mg/kg/day) or high concentration (60 mg/kg/day) every day. Transepidermal water loss (TEWL), skin hydration and erythema index were measured one day before the end of the test. Serum was obtained by retro-orbital blood sampling. After the end of the test (14 weeks old) spleen and skin tissues from occipital region and back were sampled and stored at −70° C. ALN (axillary lymph node) was stored in DMEM containing 2% FBS (fetal bovine serum). The skin tissues were stored in 10% formalin solution.
After the end of the experiment, skin was isolated from the occipital region. Hematoxylin/eosin (H&E) staining was performed to examine change of inflammatory cells such as mast cells, neutrophils, eosinophils, etc. in the epidermis, dermis and keratinocytes and change of skin thickness. Toluidine blue staining was performed to selectively stain the mast cells, and congo red staining was performed to selectively stain the eosinophils.

[4] = test system: TNF-α mRNA; experiment: TNF-α mRNA level in skin lesion (RT-PCR); type: in vivo, NC/Nga mice
Method: In order to induce atopic dermatitis, 100 mg of mite antigen cream was applied on the ear, occipital region and back of NC/Nga mouse (9 to 11 weeks old), except for the negative control group, 3 times a week, 2 hours after the application of 4% SDS solution. Three weeks later, it was observed whether atopic dermatitis was induced by checking skin rash, erythema, cornification, or the like. Atopic dermatitis was induced in all groups except for the negative control group. […] Transepidermal water loss (TEWL), skin hydration and erythema index were measured one day before the end of the test. […]
After the end of the experiment, skin tissue was isolated from the occipital region to the back of the mouse, immersed in liquid nitrogen, pulverized using a mortar, dissolved in 500 μL of TRIzol® (InvitrogenLife Technologies, USA), and then homogenized using a homogenizer in order to measure mRNA level of cytokines in skin lesion. […] After the centrifuge, the supernatant was discarded and the remaining pellets were washed 2 times with 100% ethanol, dried, and then subjected to RNA quantification by spectrophotometry. […]

[5] = oral administration 50 and 150 mg/kg
[6] = topical application 20 and 60 mg/kg

COc1cc(C[C@H](C)[C@H](C)Cc2ccc3c(c2)OCO3)ccc1O (single isomer, unassigned) [macelignan]
production of PGE2 ([1]; 1-20 μM, LPS 1 μg/ml, 18 hours, effect shown even at 5 μM): concentration-dependently inhibited | PGE2 production-inhibitory effect compared with curcumin ([1]; positive control curcumin, P<0.05): almost similar to the case of treatment with curcumin | proliferation of T cells [2]: no effect | Congo red staining: eosinophils [3, 5]: effect of decreasing eosinophils | H&E staining: inflammatory cells and epidermal thickness [3, 5]: effect of decreasing inflammatory cells and increased epidermal thickness | Toluidine blue staining: mast cells [3, 5]: effect of decreasing mast cells | Congo red staining: eosinophils [3, 6]: effect of decreasing eosinophils | H&E staining: inflammatory cells and epidermal thickness [3, 6]: effect of decreasing inflammatory cells and increased epidermal thickness | Toluidine blue staining: mast cells [3, 6]: effect of decreasing mast cells | TNF-α mRNA level in skin lesion [4, 5]: statistically significant effect of decreasing TNF-α mRNA level | TNF-α mRNA level in skin lesion [4, 6]: effect of decreasing TNF-α mRNA level
